Assay results taken from patent US20190218170A1, “BRANCHED TRIALKYLAMINE PRECURSORS, INTERMEDIATES, PRODUCTS MADE THEREFROM AND PROCESSES OF MANUFACTURE” (priority 2018, published 2019).
Read-outs that look alike come from different tables or passages of the source.

Key:
Candida albicans = test: Microplate dilution assay MIC/MLC; format: cell-based; details: for MIC < 10%: growth less than 10% of control; for MIC < 50%: growth less than 50% of control; for MLC: minimum lethal concentration
Description: (§1) The minimum inhibitory concentration (MIC) and the minimum lethal concentration (MLC) of the chemicals were determined using a microplate dilution assay. Quats were provided as aqueous solutions, while Triclosan and Chloroxylenol were provide as powders which were first dissolved at 5 weight percent in absolute ethanol. A two-fold serial dilution series of each test chemical was prepared in Trypticase Soy Broth at 20% of the standard concentration (TSB20) and in Sabouraud Dextrose Broth at 20% of the standard concentration (SDB20) in 96-well micro-titer plates. A total of 10 dilutions were prepared and four replicate tests were performed for each dilution. […] Control solutions containing only media were included for each plate. Suspensions of Staphylococcus aureus, Escherichia coli, and Candida albicans were prepared from one-day old agar plate cultures in Butterfields Phosphate Diluent to a concentration of approximately 10^7 to 10^8 cells per milliliter. Each test well was inoculated with the diluted culture suspensions at a concentration of 10^3 to 10^4 cells per well and then incubated at 32° C. with shaking at 150 rpm for approximately 24 hours, after which the optical density of each well was determined spectrophotometrically at 600 nm. Wells containing uninoculated media without test chemical were included in each plate as negative controls and, following inoculation, as positive controls.
(§2) Selected wells at or below the MIC were tested for MLC by spotting three microliters from each replicate well onto Trypticase Soy agar for S. aureus and E. coli, or Sabouraud Dextrose agar for C. albicans.

Escherichia coli = test: Microplate dilution assay MIC/MLC; format: cell-based; details: for MIC < 10%: growth less than 10% of control, 24 hours, 32° C.; for MIC < 50%: growth less than 50% of control; for MLC: minimum lethal concentration
Description: as §1, §2

Staphylococcus aureus = test: Microplate dilution assay MIC/MLC; format: cell-based; details: for MIC < 10%: growth less than 10% of control; for MIC < 50%: growth less than 50% of control; for MLC: minimum lethal concentration
Description: as §1, §2

[1] = Ready Biodegradability CO2 Evolution Test OECD 301B
Description: The biodegradability of the branched aldehyde intermediates of Example 2 (4-ethyl-2-methyloctanal) and Example 25 (2,4-diethyl-2-octenal) were determined by the Ready Biodegradability—CO2 Evolution Test—Degradation of test compound according to OECD Guidelines for Testing of Chemicals CO2 Evolution Test 301B.

[2] = Foam height, high shear (Waring blender); format: physicochemical
Description: A 0.05 wt % (actives basis) solution of the test surfactant was made in deionized water. 250 ml of the test solution was added the beaker of a Waring blender, capped, and then blended on High for 30 seconds and immediately transferred to a 1 L graduated cylinder. The total volume of foam plus liquid, as well as the liquid layer alone was recorded. The foam and liquid volumes were recorded again after 5 minutes.

[3] = Foaming of amine oxide added to commercial laundry liquid (Waring blender); format: physicochemical; parameters: Difference: unit: ml; details: for Difference: initial minus 5 min foam volume
Description: The surface foam volume and foam persistence of solutions of the amine oxides with linear and branched hydrophobes from Examples […] were compared. A commercial laundry liquid was diluted in deionized water according to the dosing instructions; 4.2 ml/L Persil Original. The diluted detergent was supplemented with 0%, 2%, 5% (based on wt laundry liquid) of LAO or Branched C12 AO, (2,4-diethyl-N,N-dimethyloctan-1-amine oxide, Example 66), and the solutions mixed briefly and used immediately. 250 ml of each test solution was added the beaker of a Waring blender, capped, and then blended on High for 30 seconds and immediately transferred to a 1 L graduated cylinder. The total volume of foam plus liquid, as well as the liquid layer alone was recorded. The foam and liquid volumes were recorded again after 5 minutes. All tests were performed in triplicate.

zein protein = system: zein protein
Description: Amine oxides with linear and branched hydrophobes from Examples 65 and 66 were compared in a screen to predict mildness of surfactants. There is a correlation between the ability of a surfactant to denature a protein and the skin irritation potential of that surfactant. The relationship is believed to result from surfactant binding to proteins like keratin, followed by the denaturation of these proteins, leading to skin irritation. A common screening test involves measuring the amount of zein (a corn protein which is insoluble in water) solubilized by a surfactant solution, the Zein Solubilization Test (Moore et al., 2003 and references therein)
For the test, 0.0750 g of zein protein is transferred into a 1.5 mL centrifuge tube. To this 1.5 mL of 1% surfactant solution is added, mixed, and placed in a 30 C incubator with mild stirring for 30 minutes. After 30 minutes has elapsed, the tube is centrifuged for 30 min at 3600 rpm. The solution is filtered through a pre-weighed 8 micron filter paper, and then dried overnight in a 50° C. oven. The insoluble zein residue is then weighed and the wt % Zein dissolved is calculated using the equation below. Each solution is analyzed in triplicate. The Zein score is normalized to a standard included in each set of tests, in this case LAE10.
% zein dissolved=(total zein added−total zein after drying Total zein added)×100

[4] = Draves Wetting Test (ASTM D2281-68); format: physicochemical; details: 0.05 wt % (actives basis) in DI water; average of 3 measurements
Description: A 0.05 wt % (actives basis) solution of amine oxide in deionized (DI) water was used to determine the Draves wet-out time (WOT) in seconds. 0.75 g of surfactant was dispersed in 1,500 ml of DI water. The wet-out time (WOT) in seconds is recorded in Table 14 (average of 3 measurements). LAO is Lauramine oxide (linear hydrophobe), Sigma catalog number 40236.

[5] = Solubility of N-alkyl-N-methylglucamines in MilliQ water and SLS/SDS solution; format: physicochemical; details: for Solubility in 10 wt % SLS / Solubility in pure MilliQ: heated to 80° C., ultrasonicated, cooled to room temperature; for Solubility in 10 wt % SLS: pH 10.8-11.1; for Solubility in 10 wt % SDS: pH 11.8-12.1; for Solubility in pure MilliQ: pH 9-9.5
Description: The solubility of three N-alkyl-N-methylglucamines (i.e., N-(2-ethyl-hexyl)-N-methylglucamine, N-decyl-N-methylglucamine, and N-(4-ethyl-2-methyloctyl)-N-methylglucamine) was investigated in pure MilliQ water and in a 10 wt % sodium lauryl sulfate (SLS) solution. The mixtures were heated to 80° C., ultrasonicated, and cooled to room temperature.

[6] = High-shear foaming of N-alkyl-N-methylglucamines in commercial blender; format: physicochemical; details: 1 wt % test substance in 10 wt % SDS, diluted to 0.05 wt % surfactant
Description: The high-shear foaming behavior of linear and branched N-alkyl-N glucamines was investigated, as this can have an impact on their performance in home care applications. […] The solutions were heated to 80° C., ultrasonicated for 1 h, and cooled to room temperature. Finally, the as-obtained solutions were diluted with MilliQ water to obtain a 0.05 wt % surfactant solution. In agreement with the literature on branched hydrophobes, the high-shear foaming tests performed in the commercial blender indicate that the linear N-decyl-N-methylglucamine (IC10 NMG) solution foams relatively more than its branched counterpart solution. For all solutions, the initial foam volume is between 40 and 53 mL. Lauramine oxide (LAO) appears to be foamier than the N-alkyl-N-methylglucamines.

## CCCCCCCCCCCC[N+](C)(C)Cc1ccccc1.[Cl-] [BAC-12 linear]
Candida albicans
  MIC < 10%: 0.0016 Weight percent
  MIC < 50%: 0.00078 Weight percent
  MLC: 0.0016 Weight percent
Escherichia coli
  MIC < 10%: 0.00078 Weight percent
  MIC < 50%: 0.00078 Weight percent
  MLC: 0.00078 Weight percent
Staphylococcus aureus
  MIC < 10%: 0.0002 Weight percent
  MIC < 50%: 0.0002 Weight percent
  MLC: 0.0002 Weight percent

## CCCCC(CC)CC(CC)C[N+](C)(C)Cc1ccccc1.[Cl-] (stereo not shown) [BAC-b12, N-benzyl-2,4-diethyl-N,N-dimethyloctan-1-aminium chloride]
Candida albicans
  MIC < 10%: 0.0063 Weight percent
  MIC < 50%: 0.0063 Weight percent
  MLC: 0.0063 Weight percent
Escherichia coli
  MIC < 10%: 0.0063 Weight percent
  MIC < 50%: 0.0063 Weight percent
  MLC: 0.0063 Weight percent
Staphylococcus aureus
  MIC < 10%: 0.00039 Weight percent
  MIC < 50%: 0.00039 Weight percent
  MLC: 0.00078 Weight percent

## Cc1cc(O)cc(C)c1Cl [Chloroxylenol]
Candida albicans
  MIC < 10%: 0.0083 Weight percent
  MIC < 50%: 0.0083 Weight percent
  MLC: >0.0083 Weight percent
Escherichia coli
  MIC < 10%: >0.0083 Weight percent
  MIC < 50%: >0.0083 Weight percent
  MLC: >0.0083 Weight percent
Staphylococcus aureus
  MIC < 10%: 0.0042 Weight percent
  MIC < 50%: 0.0042 Weight percent
  MLC: >0.0083 Weight percent

## CCCCC(CC)CC(C)C=O (stereo not shown) [Example 2, 4-ethyl-2-methyloctanal]
[1]; Day 0
  Biodegradation (%): 0%
[1]; Day 2
  Biodegradation (%): 0%
[1]; Day 6
  Biodegradation (%): 15%
[1]; Day 7
  Biodegradation (%): 21%
[1]; Day 9
  Biodegradation (%): 31%
[1]; Day 14
  Biodegradation (%): 47%
[1]; Day 19
  Biodegradation (%): 54%
[1]; Day 23
  Biodegradation (%): 56%
[1]; Day 28
  Biodegradation (%): 57%
[1]; Day 29 (first line)
  Biodegradation (%): 57%
[1]; Day 29 (second line)
  Biodegradation (%): 61%

## CCCCC(CC)CC(C=O)CC (stereo not shown) [Example 25, 2,4-diethyloctanal]
[1]; Day 0
  Biodegradation (%): 0%
[1]; Day 2
  Biodegradation (%): 0%
[1]; Day 6
  Biodegradation (%): 0%
[1]; Day 7
  Biodegradation (%): 9%
[1]; Day 9
  Biodegradation (%): 27%
[1]; Day 14
  Biodegradation (%): 48%
[1]; Day 19
  Biodegradation (%): 53%
[1]; Day 23
  Biodegradation (%): 53%
[1]; Day 28
  Biodegradation (%): 55%
[1]; Day 29 (first line)
  Biodegradation (%): 55%
[1]; Day 29 (second line)
  Biodegradation (%): 57%

## CCCCC(CC)CC(CC)C[N+](C)(C)[O-] (stereo not shown) [Example 66, 2,4-diethyl-N,N-dimethyloctan-1-amine oxide]
[2]; 0.05 wt % in deionized water, after 5 minutes
  Foam volume (ml) 5 min: 0 mL
[2]; 0.05 wt % in deionized water, blended on High 30 seconds
  Foam volume (ml) Initial: 370 mL
[2]; foam volume, initial to 5 min
  % decrease: 100%
[3]; Persil + 2% additive
  Foam volume After 5 min: 303 mL
  Difference: 257
[3]; Persil + 5% additive
  Difference: 280
[3]; Persil Original 4.2 ml/L + 2% additive
  Initial foam volume: 560 mL
Zein protein; corn, 30 min, 1 %
  Zein score - normalized to LAE10: 0.018
[4]
  Wet out time: >300 s

## CCCCC(CC)CN(C)C[C@H](O)[C@@H](O)[C@H](O)[C@H](O)CO (stereo partly shown) [N-(2-ethyl-hexyl)-N-methylglucamine, N-(2-ethylhexyl)-N-methylglucamine]
[5]
  Solubility in 10 wt % SLS: >1000 ppm
  Solubility in 10 wt % SDS: ≥1%

## CCCCC(CC)CC(C)CN(C)C[C@H](O)[C@@H](O)[C@H](O)[C@H](O)CO (stereo partly shown) [N-(4-ethyl-2-methyloctyl)-N-methylglucamine]
[5]
  Solubility in pure MilliQ: <1000 ppm
  Solubility in 10 wt % SLS: >1000 ppm
  Solubility in 10 wt % SDS: ≥1%

## CCCCCCCCCCN(C)C[C@H](O)[C@@H](O)[C@H](O)[C@H](O)CO [N-decyl-N-methylglucamine]
[6]
  Foam volume after 5 seconds stirring at speed 1: 50 mL
  Foam volume after 5 minutes settling: 49 mL
[5]
  Solubility in pure MilliQ: <1000 ppm
  Solubility in 10 wt % SLS: >1000 ppm
  Solubility in 10 wt % SDS: ≥1%

## Oc1cc(Cl)ccc1Oc1ccc(Cl)cc1Cl [Triclosan]
Candida albicans
  MIC < 10%: 0.0016 Weight percent
  MIC < 50%: 0.0016 Weight percent
  MLC: >0.0016 Weight percent
Escherichia coli
  MIC < 10%: 0.00010 Weight percent
  MIC < 50%: 0.00010 Weight percent
  MLC: 0.00010 Weight percent
Staphylococcus aureus
  MIC < 10%: 0.00002 Weight percent
  MIC < 50%: 0.00002 Weight percent
  MLC: 0.00003 Weight percent

## CCCCC(CC)CN(C)C[C@H](O)[C@@H](O)[C@H](O)[C@H](O)CO (stereo partly shown) [bC10 NMG]
[6]
  Foam volume after 5 seconds stirring at speed 1: 40 mL
  Foam volume after 5 minutes settling: 38 mL

## CC(=O)[O-].[Na+] [sodium acetate, reference compound]
[1]; Day 0
  Biodegradation (%): 0%
[1]; Day 2
  Biodegradation (%): 32%
[1]; Day 6
  Biodegradation (%): 52%
[1]; Day 7
  Biodegradation (%): 54%
[1]; Day 9
  Biodegradation (%): 60%
[1]; Day 14
  Biodegradation (%): 66%
[1]; Day 19
  Biodegradation (%): 69%
[1]; Day 23
  Biodegradation (%): 71%
[1]; Day 28
  Biodegradation (%): 72%
[1]; Day 29 (first line)
  Biodegradation (%): 74%
[1]; Day 29 (second line)
  Biodegradation (%): 78%

## Sodium lauryl ether sulfate [SLES]
Zein protein
  Zein score - normalized to LAE10: 3.488
